Reference: article PMC11062906 (Nature, 2024)

How the values were obtained:
BmGr9 Q443E_Q445A = BmGr9 Q443E_Q445A (Bombyx mori, UniProt B3GTD7, Q443E/Q445A); assay: GCaMP calcium flux assay, BmGr9 Q443E_Q445A; assay type: cell-based
BmGr9 Y190A = assay: GCaMP calcium flux assay, BmGr9 Y190A; assay type: cell-based, Bombyx mori
BmGr9 I440A = assay: GCaMP calcium flux assay, BmGr9 I440A; assay type: cell-based, Bombyx mori
[1] = tested on: HEK293 cells transfected with GCaMP only; assay: Cell-based GCaMP calcium flux assay, GCaMP-only control cells
BmGr9 R86A = assay: GCaMP calcium flux assay, BmGr9 R86A; assay type: cell-based, Bombyx mori
BmGr9 D165E = assay: GCaMP calcium flux assay, BmGr9 D165E; assay type: cell-based, Bombyx mori
BmGr9 F333L = assay: GCaMP calcium flux assay, BmGr9 F333L; assay type: cell-based, Bombyx mori
BmGr9 F189A = assay: GCaMP calcium flux assay, BmGr9 F189A; assay type: cell-based, Bombyx mori
BmGr9 Q445K = assay: GCaMP calcium flux assay, BmGr9 Q445K; assay type: cell-based, Bombyx mori
BmGr9 F333Y = assay: GCaMP calcium flux assay, BmGr9 F333Y; assay type: cell-based, Bombyx mori
BmGr9 Y332A = BmGr9 Y332A (Bombyx mori, UniProt B3GTD7, Y332A); assay: GCaMP calcium flux assay, BmGr9 Y332A; assay type: cell-based
BmGr9 Y332Q = assay: GCaMP calcium flux assay, BmGr9 Y332Q; assay type: cell-based, Bombyx mori
BmGr9 Q443D_Q445K = BmGr9 Q443D_Q445K (Bombyx mori, UniProt B3GTD7, Q443D/Q445K); assay: GCaMP calcium flux assay, BmGr9 Q443D_Q445K; assay type: cell-based
Sequence of BmGr9 Q443D_Q445K (B3GTD7 entry or part of it Q443D/Q445K): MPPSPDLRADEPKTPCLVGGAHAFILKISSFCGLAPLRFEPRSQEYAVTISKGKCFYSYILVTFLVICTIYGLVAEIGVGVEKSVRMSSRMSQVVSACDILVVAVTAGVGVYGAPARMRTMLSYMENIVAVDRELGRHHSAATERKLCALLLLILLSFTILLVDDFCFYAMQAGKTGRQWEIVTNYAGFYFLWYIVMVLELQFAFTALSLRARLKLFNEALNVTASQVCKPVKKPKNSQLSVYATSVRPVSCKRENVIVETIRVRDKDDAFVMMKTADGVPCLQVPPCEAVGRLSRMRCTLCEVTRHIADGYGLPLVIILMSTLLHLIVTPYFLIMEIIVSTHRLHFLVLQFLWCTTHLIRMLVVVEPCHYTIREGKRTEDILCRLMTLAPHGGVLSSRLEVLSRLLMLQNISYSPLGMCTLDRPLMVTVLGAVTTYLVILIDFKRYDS

Sequence of BmGr9 Q443E_Q445A (B3GTD7 entry or part of it Q443E/Q445A): as the sequence (B3GTD7 entry or part of it Q443D/Q445K) above, with D443E, K445A counted along it
Sequence of BmGr9 Y332A (B3GTD7 entry or part of it Y332A): as the sequence (B3GTD7 entry or part of it Q443D/Q445K) above, with Y332A, D443Q, K445Q counted along it

O=C(CO)[C@@H](O)[C@H](O)[C@H](O)CO [D-fructose]
EC50 (BmGr9 Q443E_Q445A): 1.53 mM | Hill Slope (BmGr9 Q443E_Q445A; Q443E_Q445A, 95% CI in parentheses): 1.58 (0.69 to 6.42) | activation by D-fructose (Fmax, Hill slope, EC50 fit) (BmGr9 Y190A): no activity | activation by D-fructose (Fmax, Hill slope, EC50 fit) (BmGr9 I440A): no activity | Hill Slope [1]: ~2.37 | F max ([1]; ~ = CI not determined): ~0.20 | activation by D-fructose (Fmax, Hill slope, EC50 fit) (BmGr9 R86A): no activity | F max (BmGr9 D165E): ~0.12 | activation by D-fructose (printed in Hill Slope column) (BmGr9 D165E): no activity | activation by D-fructose (Fmax, Hill slope, EC50 fit) (BmGr9 F333L): no activity | activation by D-fructose (Fmax, Hill slope, EC50 fit) (BmGr9 F189A): no activity | activation by D-fructose (Fmax, Hill slope, EC50 fit) (BmGr9 Q445K): no activity | activation by D-fructose (Fmax, Hill slope, EC50 fit) (BmGr9 F333Y): no activity | EC50 (BmGr9 Y332A): 8.3 mM | Hill Slope (BmGr9 Y332A; Y332A, 95% CI in parentheses): 0.99 (0.37 to 2.17) | activation by D-fructose (Fmax, Hill slope, EC50 fit) (BmGr9 Y332Q): no activity | EC50 (BmGr9 Q443D_Q445K): ~18 mM | Hill Slope (BmGr9 Q443D_Q445K; Q443D_Q445K, 95% CI in parentheses): 1.18 (0.24 to 2.87)
